Substitutions are numbered along the chain they refer to. pEC50: −log10 of the molar value. Where two headings read alike, the source gives them in different places.
Legend:
LasR W60F = target: T1, LasR W60F (Pseudomonas aeruginosa, UniProt P25084, W60F); test: β-galactosidase reporter-gene assay, LasR activation; assay type: cell-based; details: for effect of mutation on LasR activation (in words): ligand at 100 nM
T1 sequence (P25084 1-239 W60F): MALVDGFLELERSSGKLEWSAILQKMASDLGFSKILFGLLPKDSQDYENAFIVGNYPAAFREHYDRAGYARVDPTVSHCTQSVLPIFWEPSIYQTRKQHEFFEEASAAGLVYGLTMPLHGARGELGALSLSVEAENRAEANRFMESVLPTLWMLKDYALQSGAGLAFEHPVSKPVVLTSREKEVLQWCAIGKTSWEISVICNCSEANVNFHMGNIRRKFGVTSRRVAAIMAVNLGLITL

LasR T75V = target: T2, LasR T75V (Pseudomonas aeruginosa, UniProt P25084, T75V); test: as above; assay type: cell-based
T2 sequence (P25084 1-239 T75V): T1 sequence (P25084 1-239 W60F) with F60W, T75V

LasR T115V = target: T3, LasR T115V (Pseudomonas aeruginosa, UniProt P25084, T115V); test: as above; assay type: cell-based
T3 sequence (P25084 1-239 T115V): T1 sequence (P25084 1-239 W60F) with F60W, T115V

LasR Y56F = target: T4, LasR Y56F (Pseudomonas aeruginosa, UniProt P25084, Y56F); test: as above; assay type: cell-based
T4 sequence (P25084 1-239 Y56F): T1 sequence (P25084 1-239 W60F) with Y56F, F60W

LasR Y93F = target: T5, LasR Y93F (Pseudomonas aeruginosa, UniProt P25084, Y93F); test: as above; assay type: cell-based
T5 sequence (P25084 1-239 Y93F): T1 sequence (P25084 1-239 W60F) with F60W, Y93F

wild-type LasR [1] = target: T6, wild-type LasR (Pseudomonas aeruginosa, UniProt P25084); test: as above; assay type: cell-based; details: E. coli reporter, geometric mean of biological triplicates
T6 sequence (P25084 1-239): T1 sequence (P25084 1-239 W60F) with F60W

LasR R61M = target: T7, LasR R61M (Pseudomonas aeruginosa, UniProt P25084, R61M); test: as above; assay type: cell-based
T7 sequence (P25084 1-239 R61M): T1 sequence (P25084 1-239 W60F) with F60W, R61M

LasR S129A = target: T8, LasR S129A (Pseudomonas aeruginosa, UniProt P25084, S129A); test: as above; assay type: cell-based
T8 sequence (P25084 1-239 S129A): T1 sequence (P25084 1-239 W60F) with F60W, S129A

wild-type LasR [2] = target: T6, wild-type LasR; details: read-out: EC50 value in wild-type LasR; cited from earlier work
LasR W88F = target: T9, LasR W88F (Pseudomonas aeruginosa, UniProt P25084, W88F); test: β-galactosidase reporter-gene assay, LasR activation; assay type: cell-based
T9 sequence (P25084 1-239 W88F): T1 sequence (P25084 1-239 W60F) with F60W, W88F

LasR D73L = target: T10, LasR D73L (Pseudomonas aeruginosa, UniProt P25084, D73L); test: as above; assay type: cell-based
T10 sequence (P25084 1-239 D73L): T1 sequence (P25084 1-239 W60F) with F60W, D73L

[3] = E. coli reporter, geometric mean of biological triplicates

CCCCCCCCCC(=O)CC(=O)NC1CCSC1=O (centres unmarked) [Ligand 1]
pEC50 (LasR W60F; [3]): 7.15
pEC50 (LasR T75V; [3]): 9.30
pEC50 (LasR T115V; [3]): 5.46
pEC50 (LasR Y56F; [3]): 8.30
pEC50 (LasR Y93F; [3]): 8.00
pEC50 (wild-type LasR [1]): 8.30
pEC50 (LasR R61M; [3]): 7.10
pEC50 (LasR S129A; [3]): 7.52

CCCCCCCCCCCC(=O)N[C@H]1CCSC1=O [Ligand 5]
effect of mutation on LasR activation (in words) (LasR W60F): significantly decreased LasR activation
effect of mutation on LasR activation (in words) (LasR T115V; ligand at 100 nM): destroyed LasR activation
effect of mutation on LasR activation (in words) (LasR R61M; ligand at 100 nM): no significant effect
effect of mutation on LasR activation (in words) (LasR S129A; ligand at 100 nM): significantly decreased LasR activation

CCCCCCCCCCCC(=O)N[C@H]1CCOC1=O [Ligand 4]
effect of mutation on LasR activation (in words) (LasR W60F): significantly decreased LasR activation
effect of mutation on LasR activation (in words) (LasR T115V; ligand at 100 nM): destroyed LasR activation
effect of mutation on LasR activation (in words) (LasR Y56F; ligand at 100 nM): small but significant impact
pEC50 (wild-type LasR [2]): 7.40
effect of mutation on LasR activation (in words) (LasR R61M; ligand at 100 nM): perhaps only a slight effect
effect of mutation on LasR activation (in words) (LasR S129A; ligand at 100 nM): significantly decreased LasR activation

CCCCCCCCCC(=O)CC(=O)NC1CCCC1 [Ligand 2]
effect of mutation on LasR activation (in words) (LasR T115V; ligand at 10 μM): significantly detrimental
effect of mutation on LasR activation (in words) (LasR R61M; ligand at 10 μM): significantly detrimental
effect of mutation on LasR activation (in words) (LasR S129A; ligand at 10 μM): significantly detrimental

CCCCCCCCCC(=O)CC(=O)Nc1ccccc1 [Ligand 3]
activity in mutant LasR (activation, in words) (LasR W60F; ligand at 10 μM): moderate agonist
activity in mutant LasR (activation, in words) (LasR Y56F; ligand at 10 μM): moderate agonist
activity in mutant LasR (activation, in words) (LasR Y93F; ligand at 10 μM): flipped the activity of 3 into an agonist

CCCCCCCCCC(=O)CC(=O)N[C@H]1CCOC1=O [OdDHL, N-(3-oxo)-dodecanoyl L-homoserine lactone, reference compound]
maximal activation (% vs. wild-type) (LasR W60F; 10 μM OdDHL): 73%
maximal activation (% vs. wild-type) (LasR T75V; 10 μM OdDHL, mean of biological triplicates): 106%
maximal activation (% vs. wild-type) (LasR T115V; 100 μM OdDHL): 109%
maximal activation (% vs. wild-type) (LasR Y56F; 10 μM OdDHL): 102%
maximal activation (% vs. wild-type) (LasR Y93F; 10 μM OdDHL): 93%
maximal activation (% vs. wild-type) (LasR W88F; 10 μM OdDHL): 0%
EC50 (LasR W88F; E. coli reporter): inactive
maximal activation (% vs. wild-type) (LasR R61M; 10 μM OdDHL): 56%
maximal activation (% vs. wild-type) (LasR S129A; 10 μM OdDHL): 103%
maximal activation (% vs. wild-type) (LasR D73L; 10 μM OdDHL): 0%
EC50 (LasR D73L; E. coli reporter): inactive
